Measured values: patent US11873295B2, “Allosteric chromenone inhibitors of phosphoinositide 3-kinase (PI3K) for the treatment of disease” (Petra Pharma Corporation, priority 2021, dated 2024)

Tests used:
[1] = tested on: PI3K-α (PIK3CA) in MDA-MB-453 cells; assay: PI3K-alpha kinase (PIK3CA) activity in vitro cell based assay, MDA-MB-453 cells, AlphaLisa SureFire; conditions: Homo sapiens, MDA-MB-453, 3 h, 0% FBS, 3 hours treatment, relative IC50
Procedure: PI3K-Alpha Kinase (PIK3CA) Activity In Vitro Cell Based Assay and Determining IC50 Values for Inhibitors
The MDA-MB-453 (ATCC-HTB-131) cell line was obtained from the American Type Culture Collection (Manassas, VA). Cells were maintained in Dulbecco's Modified Eagle Media (DMEM, Gibco 11965-092) supplemented with 10% Fetal Bovine Serum, heat inactivated (FBS HI, Gibco 10082-147), 1× non-essential amino acids (NEAA, Gibco 11140-050), and 1 mM sodium pyruvate (Gibco 11360-070). Cultures were maintained in a humidified incubator at 37° C. under 5% CO2/95% air.
For compound testing in 0% FBS, MDA-MB-453 cells were seeded at a density of 1.5×10^4 cells per well in white 384-well plates in 20 μl of Minimum Essential Media (MEM) assay media with 1×NEAA, 1 mM sodium pyruvate, and 1 μg/mL human insulin (Sigma I9278). Compounds dissolved in 10 mM stock solutions in DMSO were serially diluted 1:3 in DMSO to generate a 10-point dilution series and plated using an acoustic liquid handler system (Echo 550 Series Liquid Handler, Labcyte). A 5× intermediate compound dilution plate in MEM with 1×NEAA and 1 mM sodium pyruvate (150 μM starting compound concentration in 1.5% DMSO) was then prepared. Five μl of the intermediate serially diluted compounds were added to the cell plate to final concentrations ranging from […] in 0.3% DMSO. 0.3% DMSO alone was used to establish the maximum (MAX) signal and GDC-0032 at a final concentration of 1 μM was used as a reference compound for the minimum (MIN) signal. After 3 hours treatment, the medium was removed, and the cells lysed in 10 μL of 1× SureFire Lysis buffer with shaking for 10 minutes at room temperature. The Acceptor Mix (Reaction Buffer 1+Reaction Buffer 2+Activation Buffer+SureFire Ultra Acceptor Beads) was prepared by diluting Activation buffer 25-fold in combined Reaction Buffer 1 and Reaction Buffer 2. The Acceptor beads were diluted 50-fold in the combined Reaction Buffers. Five μL of Acceptor Mix was added to each well, the plate was sealed and covered with foil and incubated for 1 hour at room temperature. The Donor Mix (dilution buffer+SureFire Ultra Donor Beads) was prepared by diluting Donor Beads 50-fold in dilution buffer. Five μL of the Donor Mix was added to each well and the plate sealed and covered with foil and incubated for 1 hour at room temperature in the dark. The plates were read on a Neo2 plate reader instrument from Biotek using standard AlphaLisa settings. Compounds were tested in duplicate and the average % inhibition at each compound concentration was used to generate a single dose response curve. The data were processed using the Genedata-Screener tool. Relative IC50 values were determined using luminescence units by calculating percent inhibition with respect to the in-plate “MIN” (GDC-0032 reference control) and “MAX” (DMSO) controls. The data was analyzed using a 4-parameter nonlinear logistic equation (four-parameter logistic concentration-response curve): Y=bottom+[(top−bottom)/1+(X/IC50)slope] where Y=% inhibition, X=concentration of inhibitor, bottom=minimum value of y attained by curve-fit, top=maximum value of y attained by curve-fit and slope=steepness of curve at the IC50. % Inhibition=[(signal at X−median Min)/(median Max−median Min)]×100 IC50: concentration of compound that reduces a given response (ligand binding, enzyme response) by 50%. Relative IC50: concentration giving half the compound's maximum response.
For IC50 values shown in Table B, “A” means IC50<50 nM; “B” means IC50 ranging between 50 nM and 100 nM; “C” means IC50 ranging between 100 nM and 500 nM; “D” means IC50>500 nM.

[2] = target: T1, human full length PIK3KA Wild-type (p110α/p85α complex) (Homo sapiens, UniProt P42336); assay: PI3K-alpha kinase (PIK3CA) biochemical activity, wild-type, ADP-Glo; conditions: PI3K-α (PIK3CA) biochemical
T1 construct: Recombinant, catalytically active human full length PIK3KA Wild-type and H1047R mutant were purchased as 1:1 complex; 6xHis (N); purchased EMD Millipore Sigma 14-602M
Text: (§1) PI3K-Alpha Kinase (PIK3CA) Activity, Wild-Type and H1047R Mutant and Determining IC50 Values for Inhibitors
(§2) Recombinant, catalytically active human full length PIK3KA Wild-type and H1047R mutant were purchased as 1:1 complex of N-terminal 6× his tagged p110α (catalytic) and untagged p85α (regulatory subunit) from EMD Millipore Sigma (cat. no. 14-602M and 14-792M, respectively). PIP2diC8 (Avanti Polar Lipids Inc., cat. no. 850185) or Soy PI (Avanti Polar Lipids Inc., cat. No. 840044P) was used as lipid substrate. PIP2diC8 or PI lyophilized powder was dissolved in milliQ water to a concentration of 1 mM just before use. 10 mM stock compounds in DMSO were serially diluted 1:3 to generate a 10-point curve and plated using an acoustic liquid handler system (Echo 550 series instrument, Labcyte). A 10× intermediate compound plate (200 uM starting compound concentration and 10% DMSO) was prepared before starting the reaction. A typical reaction mixture (50 uL) comprised 40 mM HEPES buffer, pH 7.4, 25 mM MgCl2, 0.01% v/v triton-X-100, 1% v/v DMSO, 20 mM NaCl, 1-5 nM WT or H1047R PI3K protein, 20 uM ATP, and 50 uM PIP2diC8 or Soy PI. 1% DMSO buffer alone without test compound was employed as MAX control (full activity in the absence of any inhibitor), and no enzyme control was used to determine the level of background Adenosine 5′-diphosphate (ADP) (MIN control). First, Wild-type (WT) and H1047R mutant protein in kinase buffer with all components except ATP were incubated with or without compound at 27° C. for 1 h. After the pre-incubation, the reaction was initiated by the addition of 20 uL of 50 uM ATP (20 uM final concentration). The reaction was allowed to proceed until about 10% conversion of ATP (2 uM ADP) at 27° C. After that time, 5 uL of reaction was mixed with 5 uL of ADP-Kinase Glo Reagent (ADP-Glo Kinase assay kit, Promega cat. no. V9102) supplemented with MgCl2 10 mM to stop the reaction and deplete the remaining ATP for 40 min at room temperature. Then, 10 uL of Kinase Detection Reagent (ADP-Glo Kinase assay kit, Promega cat. no. V9102) was added to simultaneously convert ADP to ATP and allow the newly synthesized ATP to be measured using a luciferase/luciferin reaction. After 30 min at room temperature the light generated was measured using a luminometer (EnVision plate reader, Perkin Elmer). Process data through Genedata-Screener tool. Relative IC50 values are determined using luminescence units by calculating percent inhibition with respect to on-plate “MIN” and “MAX” controls. Data was analyzed using a 4-parameter nonlinear logistic equation (four-parameter logistic concentration-response curve): Y=bot+[(top−bot)/1+(x/IC50)slope] where Y=% inhibition, X=concentration yielding y % inhibition, Bottom=minimum value of y attained by curve, Top=maximum value of y attained by curve and Slope=steepness of curve at IC50. % Inh=[(median Max−x/median Max−median Min)]·100 IC50: concentration of compound that reduces a given response (ligand binding, enzyme response) by 50%. IC50 relative: concentration giving half the compound's maximum response.
(§3) For IC50 values shown in Table A, “A” means IC50<0.5 μM; “B” means IC50 ranging between 0.5 μM and 1.0 μM; “C” means IC50 ranging between 1 μM and 5 μM; “D” means IC50 ranging between 5 μM and 10 μM; “E” means IC50>10 μM.

[3] = target: T2, human full length PIK3KA H1047R mutant (p110α/p85α complex) (Homo sapiens, UniProt P42336, H1047R); assay: PI3K-alpha kinase (PIK3CA) biochemical activity, H1047R mutant, ADP-Glo; conditions: for IC50: PI3K-α (PIK3CA) biochemical, H1047R mutant
T2 construct: Recombinant, catalytically active human full length PIK3KA Wild-type and H1047R mutant were purchased as 1:1 complex; 6xHis (N); purchased EMD Millipore Sigma 14-792M
T2 sequence (P42336 whole entry H1047R): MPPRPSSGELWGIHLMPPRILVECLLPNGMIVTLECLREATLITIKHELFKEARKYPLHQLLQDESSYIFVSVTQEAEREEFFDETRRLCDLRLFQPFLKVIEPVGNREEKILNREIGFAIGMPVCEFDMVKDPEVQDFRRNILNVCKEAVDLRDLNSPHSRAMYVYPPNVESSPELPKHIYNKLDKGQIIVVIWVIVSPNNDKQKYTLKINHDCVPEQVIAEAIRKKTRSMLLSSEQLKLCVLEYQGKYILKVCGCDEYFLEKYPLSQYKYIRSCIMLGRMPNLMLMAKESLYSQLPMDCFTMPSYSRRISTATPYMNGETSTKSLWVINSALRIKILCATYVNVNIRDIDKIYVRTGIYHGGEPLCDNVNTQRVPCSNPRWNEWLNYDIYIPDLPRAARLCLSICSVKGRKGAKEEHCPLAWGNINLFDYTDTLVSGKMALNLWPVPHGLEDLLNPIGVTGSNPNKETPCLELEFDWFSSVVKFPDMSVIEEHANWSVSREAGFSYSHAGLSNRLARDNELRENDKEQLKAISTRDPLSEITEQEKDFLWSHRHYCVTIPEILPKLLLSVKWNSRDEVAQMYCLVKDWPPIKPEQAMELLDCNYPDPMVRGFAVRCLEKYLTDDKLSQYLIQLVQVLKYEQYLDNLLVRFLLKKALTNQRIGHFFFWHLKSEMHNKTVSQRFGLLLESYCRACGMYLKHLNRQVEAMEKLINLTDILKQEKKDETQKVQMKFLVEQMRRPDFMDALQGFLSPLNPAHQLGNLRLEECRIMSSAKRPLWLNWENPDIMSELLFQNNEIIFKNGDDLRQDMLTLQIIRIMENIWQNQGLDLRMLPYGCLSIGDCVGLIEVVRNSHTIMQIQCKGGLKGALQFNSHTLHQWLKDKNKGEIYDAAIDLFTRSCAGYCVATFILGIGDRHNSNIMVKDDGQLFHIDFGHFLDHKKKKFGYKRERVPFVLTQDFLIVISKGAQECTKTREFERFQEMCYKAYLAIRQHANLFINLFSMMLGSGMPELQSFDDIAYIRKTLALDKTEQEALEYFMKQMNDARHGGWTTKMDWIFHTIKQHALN
T2 sequence (P27986 whole entry partner): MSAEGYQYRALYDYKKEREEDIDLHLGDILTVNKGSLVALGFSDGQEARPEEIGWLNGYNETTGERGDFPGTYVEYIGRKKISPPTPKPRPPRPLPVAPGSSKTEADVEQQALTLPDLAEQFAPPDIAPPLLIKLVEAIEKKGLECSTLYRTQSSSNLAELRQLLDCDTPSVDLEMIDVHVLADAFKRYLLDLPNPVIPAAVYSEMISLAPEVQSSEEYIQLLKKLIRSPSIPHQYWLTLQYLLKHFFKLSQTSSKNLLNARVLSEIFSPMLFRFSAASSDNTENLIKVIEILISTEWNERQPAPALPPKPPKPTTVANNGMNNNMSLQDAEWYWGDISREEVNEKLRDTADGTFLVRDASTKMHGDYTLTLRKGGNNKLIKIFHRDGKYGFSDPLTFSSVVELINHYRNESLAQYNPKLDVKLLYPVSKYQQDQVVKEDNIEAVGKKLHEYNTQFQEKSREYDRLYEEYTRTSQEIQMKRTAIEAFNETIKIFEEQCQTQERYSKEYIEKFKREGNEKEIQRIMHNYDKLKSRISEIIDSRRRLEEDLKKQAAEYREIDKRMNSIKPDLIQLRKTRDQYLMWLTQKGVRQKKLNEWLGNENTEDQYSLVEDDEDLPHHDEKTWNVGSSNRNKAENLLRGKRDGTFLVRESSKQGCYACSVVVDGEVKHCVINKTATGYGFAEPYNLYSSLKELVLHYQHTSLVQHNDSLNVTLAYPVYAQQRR
Text: as §1, §2, §3

[4] = PIP2diC8 lipid substrate (footnote 1)

Q: For `Cc1cc([C@@H](C)Nc2ccccc2C(=O)O)c2oc(-c3ccc(-c4ccc(C#N)cc4)cc3)c(C)c(=O)c2c1` [Example 172, 2-[[(1R)-1-[2-[4-(4-Cyanophenyl)phenyl]-3,6-dimethyl-4-oxo-chromen-8-yl]ethyl]amino]benzoic acid], which IC50 [1] is on record?
A: 0.05 to 0.1 µM

Q: For `Cc1cc([C@@H](C)Nc2ccccc2C(=O)O)c2oc(-c3cccc(-c4ccccc4C#N)c3)c(C)c(=O)c2c1` [Example 174, 2-[[(1R)-1-[2-[3-(2-Cyanophenyl)phenyl]-3,6-dimethyl-4-oxo-chromen-8-yl]ethyl]amino]benzoic acid], which IC50 [1] is on record?
A: < 0.05 µM

Q: Which IC50 [1] does the source give for `Cc1cc([C@@H](C)Nc2cccc(F)c2C(=O)O)c2oc(-c3cccc(F)c3)c(C)c(=O)c2c1` [Example 143, 2-Fluoro-6-[[(1R)-1-[2-(3-fluorophenyl)-3,6-dimethyl-4-oxo-chromen-8-yl]ethyl]amino]benzoic acid 2,2,2-trifluoroacetic acid] here?
A: < 0.05 µM

Q: With `Cc1c(-c2cccc(C#N)c2)oc2c([C@@H](C)Nc3ccc(Cl)nc3C(=O)O)cc(C(F)(F)F)cc2c1=O` [Example 100, 6-Chloro-3-[[(1R)-1-[2-(3-cyanophenyl)-3-methyl-4-oxo-6-(trifluoromethyl)-chromen-8-yl]ethyl]amino]pyridine-2-carboxylic acid] as the molecule, how does the IC50 ([2]; Soy PI lipid substrate) read?
A: 0.5 to 1 µM

Q: What about the IC50 ([3]; Soy PI lipid substrate) of the same molecule?
A: < 0.5 µM

Q: With `Cc1cc(C(C)Nc2ccccc2C(=O)O)c2oc(-c3ccc(C4(C)CC4)cc3)cc(=O)c2c1` (stereo not drawn) [Example 12, 2-[1-[6-Methyl-2-[4-(1-methylcyclopropyl)-phenyl]-4-oxo-chromen-8-yl]ethylamino]benzoic acid 2,2,2-trifluoroacetic acid] as the molecule, how does the IC50 ([2]; Soy PI lipid substrate) read?
A: 5 to 10 µM

Q: And the IC50 ([3]; Soy PI lipid substrate)?
A: 0.5 to 1 µM

Q: Which results are given for `Cc1cc([C@@H](C)Nc2ccc(Cl)nc2C(=O)O)c2oc(-c3ccccc3)c(C(F)(F)F)c(=O)c2c1` [Example 139, 6-Chloro-3-[[(1R)-1-[6-methyl-4-oxo-2-phenyl-3-(trifluoromethyl)-chromen-8-yl]ethyl]amino]pyridine-2-carboxylic acid 2,2,2-trifluoroacetic acid]?
A: IC50 ([2]; Soy PI lipid substrate): < 0.5 µM; IC50 ([3]; Soy PI lipid substrate): < 0.5 µM

Q: `Cc1cc([C@@H](C)Nc2ccccc2C(=O)O)c2oc(-c3ccc(C#N)c(F)c3)cc(=O)c2c1` [Example 56, 2-[[(1R)-1-[2-(4-Cyano-3-fluoro-phenyl)-6-methyl-4-oxo-chromen-8-yl]ethyl]amino]benzoic acid 2,2,2-trifluoroacetic acid] was tested. Which IC50 ([2]; Soy PI lipid substrate) did it give?
A: 1 to 5 µM

Q: What about the IC50 ([3]; Soy PI lipid substrate) of the same molecule?
A: < 0.5 µM

Q: Which results are given for `Cc1cc([C@@H](C)Nc2ccc(F)cc2C(=O)O)c2oc(-c3ccccc3)cc(=O)c2c1` [Example 20, 5-Fluoro-2-[[(1R)-1-(6-methyl-4-oxo-2-plienyl-chromen-8-yl)ethyl]amino]benzoic acid]?
A: IC50 [2, 4]: < 0.5 µM; IC50 [3, 4]: < 0.5 µM

Q: Which IC50 [2, 4] does the source give for `Cc1cc([C@@H](C)Nc2ccccc2C(=O)O)c2oc(-c3ccc(F)cc3)cc(=O)c2c1` [Example 19, 2-[[(1R)-1-[2-(4-Fluorophenyl)-6-methyl-4-oxo-chromen-8-yl]ethyl]amino]benzoic acid] here?
A: 1 to 5 µM

Q: And the IC50 [3, 4]?
A: < 0.5 µM

Q: Which results are given for `Cc1cc(C(C)Nc2ccccc2C(=O)O)c2oc(-c3ccc(C4(C#N)CC4)cc3)cc(=O)c2c1` (single isomer, unassigned; isomer 2) [Example 53, 2-[1-[2-[4-(1-Cyanocyclopropyl)-phenyl]-6-methyl-4-oxo-chromen-8-yl]ethylamino]benzoic acid, Isomer 2]?
A: IC50 ([2]; Soy PI lipid substrate): 1 to 5 µM; IC50 ([3]; Soy PI lipid substrate): < 0.5 µM

Q: With `Cc1cc(C(C)Nc2ccccc2C(=O)O)c2oc(-c3ccc(S(C)(=O)=O)cc3)cc(=O)c2c1` (single isomer, unassigned; isomer 2) [Example 48, 2-[1-[6-Methyl-2-(4-methylsulfonylphenyl)-4-oxo-chromen-8-yl]ethylamino]benzoic acid, Isomer 2] as the molecule, how does the IC50 ([2]; Soy PI lipid substrate) read?
A: > 10 µM

Q: What about the IC50 ([3]; Soy PI lipid substrate) of the same molecule?
A: < 0.5 µM

Q: How did the IC50 ([2]; Soy PI lipid substrate) turn out when `Cc1cc(C(C)Nc2ccc(Cl)nc2C(=O)O)c2oc(-c3ccccc3)c(I)c(=O)c2c1` (single isomer, unassigned; isomer i) [Example 153, 6-Chloro-3-[1-(3-iodo-6-methyl-4-oxo-2-phenyl-chromen-8-yl)ethylamino]pyridine-2-carboxylic acid, Isomer I] was run?
A: 1 to 5 µM

Q: What about the IC50 ([3]; Soy PI lipid substrate) of the same molecule?
A: 1 to 5 µM

Q: `Cc1cc(C(C)Nc2ccccc2C(=O)O)c2oc(-c3cccc(-c4cnn(C)c4)c3)cc(=O)c2c1.O=C(O)C(F)(F)F` (stereo not drawn) [Example 13, 2-[1-[6-Methyl-2-[3-(1-methylpyrazol-4-yl)phenyl]-4-oxo-chromen-8-yl]ethylamino]benzoic acid 2,2,2-trifluoroacetic acid] was tested. Which IC50 ([2]; Soy PI lipid substrate) did it give?
A: 1 to 5 µM

Q: What about the IC50 ([3]; Soy PI lipid substrate) of the same molecule?
A: < 0.5 µM

Q: And the “IC50 WT/IC50 H1047R” value ([3]; ratio of biochemical IC50 wild-type to H1047R mutant, Soy PI lipid substrate)?
A: *For Example 13, IC50 WT/IC50 H1047R = 7.7
